According to US20040067998A1, “Antifungal and/or antiparasitic pharmaceutical composition and novel indole derivatives as active principle of such a composition” (priority 2003, published 2004):
Values after ≈ are worked out from the molar mass of the structure shown. Values joined by “and” are separate entries in the source; they are usually repeats but may differ in a detail not shown here. Identical values can stand only once. “Also recorded” adds a separate entry of the source. Like-named read-outs stand apart in the source and are kept apart here.

How the values were obtained:
[1] = tested on: promastigote stage of Leishmania mexicana; assay: Antiparasitic activity on the promastigote form of Leishmania (MTT); assay type: cell-based; details: for IC50: read-out: CI50 Leishmania mexicana Promastigotes
[2] = tested on: Candida albicans (strain n° CA980001); assay: Antifungal activity on a clinical strain of Candida albicans (MTT colorimetric microplate test); assay type: cell-based; details: strain CA980001, read-out: CMI or CI80 Candida albicans (CA980001)
[3] = tested on: Aspergillus fumigatus (strain n°AF 980003); assay: Antifungal activity on a clinical strain of Aspergillus fumigatus (Alamar Blue microplate test); assay type: cell-based; details: Aspergillus fumigatus, strain AF980003, read-out: CMI or CI80 Aspergillus fumigatus (AF980003)
[4] = tested on: intracellular amastigote form of Leishmania mexicana; assay: Anti-leishmanian activity on the amastigote form in peritoneal macrophages of BALB/c mice; assay type: cell-based
[5] = tested on: Candida albicans (CA98001); assay: Antifungal activity in vivo on a model of disseminated candidiasis; design: species or system female Swiss mice
Leishmania major = assay: Anti-leishmanian activity in vivo on a model of cutaneo-mucosal and visceral leishmaniasis; design: species or system male BALB/c mice
Procedure: (1999), Croft et al. (1993) and Hill et al. (1983). The animals used (Centre d'élevage R. Janvier, Le Genest-St-France) were male BALB/c mice, aged 7 weeks at the time of inoculation of the parasites. This operation was performed in accordance with the legislation relating to animal experimentation. […] Days after the inoculation, the treatment was administered intraperitoneally for 10 days. Three weeks after the treatment, its effectiveness was determined by determining the parasite level in the liver, spleen, popliteal ganglion and the cutaneous lesion.

[6] = tested on: Candida albicans (4 strains); assay: Antifungal activity in vitro on clinical strains of Candida: albicans (4 strains); assay type: cell-based
[7] = tested on: Candida krusei (4 strains); assay: Antifungal activity in vitro on clinical strains of Candida: krusei (4 strains); assay type: cell-based
synthesis of ergosterol = assay: Mechanism of action: quantification of ergosterol (HPLC and UV spectrophotometry); assay type: cell-based
Text: The principal mechanism of action of the triazole derivatives is the inhibition of the synthesis of ergosterol leading to instability of the cell membrane. […] These two techniques require a prior saponification of the sample followed by an extraction of the sterols present. The results obtained are expressed in μg of ergosterol per g of sample. The activity of the derivatives studied is expressed by their capacity to inhibit the synthesis of ergosterol compared to an untreated control sample.

[8] = tested on: Candida parapsilosis (2 strains); assay: Antifungal activity in vitro on clinical strains of Candida: parapsilosis (2 strains); assay type: cell-based
[9] = tested on: clinical strains of Candida; assay: Antifungal activity in vitro on several clinical strains of Candida (overall statement over all strains); assay type: cell-based; details: summary of Table 41
[10] = tested on: Candida lusitaniae (1 strain); assay: Antifungal activity in vitro on clinical strains of Candida: lusitaniae (1 strain); assay type: cell-based
[11] = tested on: Candida tropicalis (1 strain); assay: Antifungal activity in vitro on clinical strains of Candida: tropicalis (1 strain); assay type: cell-based; details: strain CT980002 (Candida tropicalis)
[12] = Leishmania mexicana, promastigotes, 36 h at 26° C., MTT
[13] = Candida albicans, 24 h at 37° C., MTT
[14] = Test N°3, 3 × 20 mg/kg/d for 5 d intraperitoneal
[15] = compound 45 intraperitoneally for 10 days, dose not given, three weeks after treatment

CCn1cc(C(c2ccc(Cl)cc2Cl)n2cncn2)c2cc(Br)ccc21 (centres unmarked) [Cpsé 47, 5-Bromo-1-ethyl-3-[(2,4-dichlorophenyl)(1H-1,2,4-triazol-1yl)methyl]-1H-indole]
IC50 [1, 12]: 25 µM and 8.07 µg/mL | MIC [2, 13]: > 100 µM | MIC ([3]; Alamar Blue): > 100 µM | melting point: 124 to 126 °C

CCN1CCc2cc(Br)cc(C(c3ccc(F)cc3)n3ccnc3)c21 (centres unmarked) [Cpsé 51, 5-Bromo-1-ethyl-7-[(4-fluorophenyl)(1H-imidazol-1-yl)methyl]indoline]
IC50 [1, 12]: 59.2 µM and 23.8 µg/mL | MIC [2, 13]: > 100 µM | MIC ([3]; Alamar Blue): > 100 µM | melting point: 120 to 123 °C

Clc1ccc(Cn2cc(CCn3ccnc3)c3ccccc32)cc1 [Cpsé 59, 1-(4-Chlorobenzyl)-3-(2-1H-imidazol-1-ylethyl)-1H-indole]
melting point: 78 to 80 °C

Clc1ccc(Cn2cc(C3(Cn4ccnc4)CCCC3)c3ccccc32)cc1 [Cpsé 63, 1-[1-(4-Chlorobenzyl)-1H-indol-3yl]-1-(1H-imidazol-1-ylmethyl)cyclopentane]
melting point: 91 to 92 °C

OC(Cn1cncn1)(Cn1ccc2ccccc21)c1ccc(Cl)cc1Cl (centres unmarked) [Cpsé 78, 2-(2,4-Dichlorophenyl)-1-(1,2,4-1H-triazol-1-yl)-3-(indol-1-yl)propan-2-ol]
activity against Leishmania mexicana (in words) [1]: most active | IC50 ([1]; Leishmania mexicana): 0.1 µg/mL and 230 nM | activity against the intracellular amastigote form of Leishmania (in words) [4]: very active | IC50 ([4]; Leishmania mexicana, Peritoneal macrophage, intracellular amastigote form, read-out: CI50 Intracellular amastigotes): 1.5 ± 0.01 µg/mL (≈ 3.87 µM) | parasite level in the kidneys compared with the control group (in words) [5, 14]: significant reduction | MIC ([2]; Candida albicans, 24 h): > 100 µM | reduction of the hepatic parasite level (Leishmania major; [15]): 79% | reduction of the spleen parasite level (Leishmania major; [15]): 98.9% | MIC [3]: > 100 µM

CNC[C@H](O)[C@@H](O)[C@H](O)[C@H](O)CO.[O]=[Sb](=[O])[OH] [Glucantime ®, meglumine antimoniate, reference compound]
CI50 Leishmania mexicana Promastigotes [1]: 15000 ± 260 µg/mL | IC50 on the amastigote stage of Leishmania mexicana [4]: 48.7 µg/mL | reduction of the hepatic parasite level (Leishmania major; Glucantime 10 mg/Kg/d, 10 days): 74% | reduction of the spleen parasite level (Leishmania major; Glucantime 10 mg/Kg/d, 10 days): 82%

OC(Cn1cncn1)(Cn1ccc2ccccc21)c1ccc(Cl)cc1Cl (centres unmarked) [compound 78]
IC50 ([1]; promastigotes): < 1 µM | effect of treatment on the survival of the animals (in words) ([5]; Test N°2, 2 × 30 mg/kg/d for 5 d intraperitoneally, monitored 14 days (78: from D9 to D14)): significantly prolonged the survival | survival at D14 [5, 14]: 100% | survival at D18 [5, 14]: 75% | survival greater than that of the reference treatment (ketoconazole 20 mg/kg) ([5]; Test N°3, 3 × 20 mg/kg/d, experiment continued for 4 more days (D18)): 25% | survival at D10 ([5]; Test N°4, 3 × 20 mg/kg/d for 5 d, treatment intraperitoneal or per os): 100% | MIC [2]: <0.001 µM | activity against strains of Candida albicans (in words) ([6]; clinical strains): active; also recorded: very active | CI80 on clinical strains of Candida ([6]; strain CA980001 (Candida albicans)): <0.001 µM | CI80 on clinical strains of Candida ([6]; strain CA980002 (Candida albicans)): <0.01 µM | CI80 on clinical strains of Candida ([6]; strain CA980003 (Candida albicans)): <0.01 µM | CI80 on clinical strains of Candida ([6]; strain CA980005 (Candida albicans)): <0.01 µM | activity against Candida krusei (in words) ([7]; clinical strains, b748: one strain): active; also recorded: very active | CI80 on clinical strains of Candida ([7]; strain CK980001 (Candida krusei)): <0.01 µM | CI80 on clinical strains of Candida ([7]; strain CK980002 (Candida krusei)): 7.2 ± 0.1 µM | CI80 on clinical strains of Candida ([7]; strain CK980003 (Candida krusei)): 9.2 ± 0.04 µM | CI80 on clinical strains of Candida ([7]; strain CK980004 (Candida krusei)): 0.3 ± 0.1 µM | inhibition of the synthesis of ergosterol (in words) (synthesis of ergosterol; preliminary results): strong inhibition | reduction of the presence of ergosterol (HPLC determination) (synthesis of ergosterol; treatment for 24 hours at 10 μg, HPLC): 70% | ergosterol in the treated sample (UV spectrophotometry, in words) (synthesis of ergosterol; treatment for 24 hours at 10 μg, UV spectrophotometry): absence of ergosterol | activity against Candida parapsilosis (in words) ([8]; clinical strains): very active | CI80 on clinical strains of Candida ([8]; strain CP980001 (Candida parapsilosis)): <0.01 µM | CI80 on clinical strains of Candida ([8]; strain CP980002 (Candida parapsilosis)): 0.53 ± 0.12 µM | activity against different strains of Candida (in words) [9]: most active | activity against Candida lusitaniae (in words) ([10]; clinical strain): very active | CI80 on clinical strains of Candida ([10]; strain CL980001 (Candida lusitaniae)): <0.01 µM | CI80 on clinical strains of Candida [11]: <0.01 µM
